According to US5246957A, “N-imidazolyl derivatives of substituted indole” (Farmitalia Carlo Erba S.r.l., priority 1991, dated 1993):
Read-outs that look alike come from different tables or passages of the source.

Legend:
[1] = system: TxB2 synthesis; assay: TxB2 Synthesis Inhibition in vitro, in whole blood of normal rats; assay type: cell-based, Sprague Dawley rats; details: Rattus norvegicus, read-out: In vitro effect on TxB2 synthesis in normal rats, IC50 (whole blood)
Experimental: (§1) The effects of a representative group of compounds of the invention were evaluated, in comparison with known compounds, on TxB2 synthesis inhibition in vitro, in whole blood of normal rats, and on TxA2 antagonism in a binding assay in washed human platelets.
TxB2 Synthesis Inhibition
Blood was withdrawn from the abdominal aorta of normal Sprague Dawley rats (Charles River Italy) under light ether anaestesia. The blood was immediately divided in portions of 0.5 ml and distributed in glass tubes each containing a concentration of the test compound, or of the reference compounds.
Samples were then allowed to clot for 1 hour at 37° C., centrifuged at 3000 rpm for 10 min, and serum collected and stored at -20° C. until assayed.

[2] = biological target: T1, TxA2 receptor (Homo sapiens, UniProt P21731); assay: Displacement of [^3 H]-SQ 29,548 Binding to Washed Human Platelets; details: for affinity for the receptor compared with reference standards: versus BM 13505 and BM 13177; for IC50: washed human platelets, [^3 H]-SQ 29,548 5 nM, 30 min at 25° C., pH 7.4, n = 3, read-out: ^3 H SQ 29548 binding displacement (washed human platelet) IC50
T1 construct: endogenous in cells; host or cells: washed platelets from blood of healthy human volunteers
T1 sequence (P21731 1-343): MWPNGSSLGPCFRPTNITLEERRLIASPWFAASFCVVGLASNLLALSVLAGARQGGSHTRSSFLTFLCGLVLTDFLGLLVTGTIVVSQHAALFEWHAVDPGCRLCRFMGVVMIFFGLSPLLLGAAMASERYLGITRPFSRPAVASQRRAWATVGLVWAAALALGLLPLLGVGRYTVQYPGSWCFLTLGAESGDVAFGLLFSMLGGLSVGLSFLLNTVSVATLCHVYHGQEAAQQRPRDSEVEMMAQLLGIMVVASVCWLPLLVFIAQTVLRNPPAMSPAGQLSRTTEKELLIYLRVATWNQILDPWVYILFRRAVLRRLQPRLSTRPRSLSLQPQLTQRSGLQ
Experimental: as §1
Displacement of [^3 H]-SQ 29,548 Binding to Washed Human Platelets
Blood from healthy volunteers of both sexes who had not taken any medication for at least 10 days was collected into one-tenth volume of acid citrate dextrose containing indomethacin (28 μM). Platelet rich plasma (PRP), obtained by centrifugation of the blood at 200× g for 20 min, was washed twice (1000× g for 10 min). The platelets were then resuspended in Tyrode-Hepes buffer (pH 7.4) to a final concentration of […] and incubated for 0-60 min at 25° with [^3 H]-SQ 29,548 (5 nM). For displacement experiments various concentrations (10^-9 -10^-4 M) of competing ligands were added and incubated for 30 min at 25° C. […] After the incubation, 4 ml of ice-cold TRIS-HCl buffer ( 10 mM, pH 7.4) was added to each tube and the reaction mixture was immediately filtered by suction through a Whatman GF/C glass filter disc which was washed 2 times with ice-cold TRIS-HCl (4 ml) and counted for radioactivity by a Packard β-counter.
The binding data were analysed by computerized non-linear curve fitting using the Ligand program and expressed as IC50.

[3] = whole blood of normal rats, clotted 1 hour at 37° C., TxB2 by RIA

Structure (SMILES) | IC50 [1, 3] [µM] | affinity for the receptor compared with reference standards [2] | IC50 [2] [µM] | IC50 ([1]; 1 h) [µM]
O=C(O)c1ccc(OCCn2ccnc2)cc1 [Dazoxiben, dazoxiben] | 1.2 | – | – | –
Cc1c(CCCC(=O)O)n(Cc2ccc(-n3ccnc3)cc2)c2ccc(F)cc12 [FCE 27093, 5-Fluoro-1-[[4-(1H-imidazol-1-yl)phenyl]methyl]-3-methyl-1H-indole-2-butanoic acid] | 1.19 | affinity for the receptor greater than those of compounds BM 13505 and BM 13177 | 0.0119 | –
Cc1c(CCC(=O)O)n(Cc2ccc(-n3ccnc3)cc2)c2ccc(F)cc12 [FCE 27005, 5-Fluoro-1-[[4-(1H-imidazol-1-yl)phenyl]methyl]-3-methyl-1H-indole-2-propanoic acid] | – | affinity for the receptor greater than those of compounds BM 13505 and BM 13177 | 0.0329 | –
CC(=O)Oc1ccccc1C(=O)O [ASA, acetylsalicilic acid] | – | – | – | 31
